Test results from patent US5354691A, “Polypeptides and derivatives thereof as well as their use in pharmaceutical and diagnostic compositions” (priority 1987, dated 1994).

Key:
[1] = tested on: T-cell clone A2b; experiment: T-cell clone proliferation (3H-thymidine uptake, stimulation index), clone A2b; type: cell-based, rat; conditions: polypeptide with sequence homologous to antigen A 180-188
[2] = tested on: T-cell clones A2b and A2c; conditions: from European patent application 0 262 710 / EP-A-0 181 364; cited from earlier work
[3] = tested on: T-cell clones A2b and A2c; experiment: Stimulating activity on T-cell clones A2b and A2c, stated for both clones together; type: cell-based, rat

For “TFGLQPQDT [antigen from Epstein-Barr virus]”, the “response of T-cell clone A2b” value [1] was “responds”.
For “proteoglycan protein of cartilage: proteoglycan protein of cartilage (J.Biol.Chem. 261, 3519-3535)”, the “recognition by / response of T-cell clones A2b and A2c” value [2] is listed as “recognized”.
In the case of RARLQLELS [lamin A and C], the “response of the T-cell clones A2b and A2c” value [3] is reported as “react positively”.
